Some test systems named below: EKVX NSCLC; NCI/ADR-RES ovarian; PC-3 prostate; UACC-257 melanoma; HOP-62 NSCLC; NCI-H23 lung; NCI-H460 lung; MOLT-4 leukemia.
Assay in all cases: inhibition of tumour cell growth, NCI panel, 48 h

Several values for one entry are separate records, joined by “and”; a condition that tells them apart may be missing. Identical values can stand only once.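 Values below derive from 48-hour exposures of cells grown in 96-well plates, with endpoints linearly interpolated between the two concentrations bracketing the appropriate inhibition level. GI50: concentration for 50% inhibition of growth. Definition used: TGI = concentration required for complete inhibition of growth.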

The source of these data is PubChem BioAssay (NCI).

As to `C[C@H]1C(Oc2ccc(O)cc2)OC2OC3(C)CCC4[C@H](C)CCC1C24OO3` (some centres not stated), the GI50 in the assay with EKVX NSCLC is 6.42 µM; with NCI/ADR-RES ovarian it was 8.04 µM; with PC-3 prostate it was 0.251 µM; in the assay with UACC-257 melanoma, 13.1 µM; in the assay on HOP-62 NSCLC, 21.8 µM; in the assay with NCI-H23 lung, 12 µM. Also, in the assay with NCI-H460 lung, the GI50 was 15.1 µM. Besides, the TGI in the assay with EKVX NSCLC was 23.1 µM; in the assay with NCI/ADR-RES ovarian it was 25.8 µM; in the assay on PC-3 prostate it was 14.8 µM; in the assay with UACC-257 melanoma, 28.4 µM; in the assay with HOP-62 NSCLC, 51.5 µM; in the assay with NCI-H23 lung it was 27.7 µM. The TGI is 30.5 µM in the assay on NCI-H460 lung and more than 63.6 µM with MOLT-4 leukemia.

Consider `O=[N+]([O-])c1ccc2ncccc2c1Cl`, for which the GI50 in the assay with EKVX NSCLC is 12.3 µM; in the assay with NCI/ADR-RES ovarian, 3.92 µM; in the assay with PC-3 prostate it was 3.75 µM; with UACC-257 melanoma, 7.62 µM; in the assay on HOP-62 NSCLC, 5.64 µM; with NCI-H23 lung it was 6.96 µM. In addition, the GI50 in the assay on NCI-H460 lung was 3.47 µM; in the assay on MOLT-4 leukemia, 3.07 µM. The TGI is 29.2 µM in the assay with EKVX NSCLC; more than 100 µM in the assay with NCI/ADR-RES ovarian; 20.2 µM with PC-3 prostate; 29.3 µM in the assay with UACC-257 melanoma; more than 100 µM in the assay with HOP-62 NSCLC; 29.8 µM in the assay on NCI-H23 lung. The TGI with NCI-H460 lung amounted to 16.6 µM; with MOLT-4 leukemia it was 12.2 µM.

In the case of `C/C(Cc1ccc(Cl)cc1)=C(/c1ccc(Cl)cc1)c1ccc(OCCN(C)C)cc1`, the GI50 in the assay with EKVX NSCLC is 4.75 µM; with NCI/ADR-RES ovarian, 4.8 µM; in the assay with PC-3 prostate, 4.34 µM; with UACC-257 melanoma, 4.24 µM; in the assay on HOP-62 NSCLC, 6.07 µM; with NCI-H23 lung, 4.54 µM. Besides, the GI50 in the assay on NCI-H460 lung is 1.22 µM; in the assay with MOLT-4 leukemia, 4.01 µM. Further, the TGI in the assay on EKVX NSCLC was determined as 9.22 µM; with NCI/ADR-RES ovarian, 9.88 µM; in the assay on PC-3 prostate, 9.21 µM; in the assay on UACC-257 melanoma, 9.38 µM; in the assay with HOP-62 NSCLC, 11.8 µM; in the assay on NCI-H23 lung, 9.14 µM. Further, the TGI in the assay with NCI-H460 lung is 4.49 µM; with MOLT-4 leukemia it was 10 µM.

Turning to `COc1ccc(Cn2cc3c(c2-c2cc(OC)c(OC)c(OC)c2)CCc2cnoc2-3)cc1[N+](=O)[O-]`, the GI50 in the assay with EKVX NSCLC is 1.43 µM; in the assay on NCI/ADR-RES ovarian, 0.364 µM; in the assay on PC-3 prostate it was 1.39 µM; in the assay with UACC-257 melanoma, 4.03 µM; with HOP-62 NSCLC, 2.85 µM; in the assay on NCI-H23 lung it was 1.46 µM. Besides, the GI50 in the assay on NCI-H460 lung was 0.721 µM; in the assay on MOLT-4 leukemia it was 1.4 µM. Further, the TGI with EKVX NSCLC was more than 100 µM; with PC-3 prostate, more than 100 µM; with UACC-257 melanoma it was more than 100 µM; in the assay with HOP-62 NSCLC it was more than 100 µM; in the assay with NCI-H23 lung, more than 30.3 µM; with NCI-H460 lung, more than 28.8 µM. The TGI with MOLT-4 leukemia was more than 100 µM.

As to `CCc1nc(Cl)nc(Cl)c1Cl`, the TGI in the assay on EKVX NSCLC worked out at 38.7 µM; in the assay with NCI/ADR-RES ovarian, 9.41 µM; with PC-3 prostate, 6.25 µM; in the assay with UACC-257 melanoma it was 1.87 µM; with HOP-62 NSCLC it was 21.2 µM; in the assay with NCI-H23 lung, 5.9 µM. Also, the TGI in the assay on NCI-H460 lung stood at 28.5 µM; in the assay with MOLT-4 leukemia, 1.68 µM.

Consider `COc1ccccc1S(=O)(=O)Nc1ccc2c(c1)CN(C)C(=O)N2`, for which the GI50 in the assay on EKVX NSCLC was 20.3 µM; in the assay with NCI/ADR-RES ovarian, 29.5 µM and 33.3 µM; in the assay on PC-3 prostate, 10.7 µM and 16.3 µM; in the assay on UACC-257 melanoma it was 4.46 µM and 3.86 µM; in the assay with HOP-62 NSCLC it was 4.93 µM and 4.22 µM; with NCI-H23 lung it was 7.03 µM and 12.8 µM. Moreover, the GI50 in the assay on NCI-H460 lung was 10.6 µM and 13.4 µM; with MOLT-4 leukemia it was 11 µM and 12.7 µM. The TGI in the assay on EKVX NSCLC, in the assay with NCI/ADR-RES ovarian, with PC-3 prostate, in the assay on UACC-257 melanoma, in the assay on HOP-62 NSCLC and with NCI-H23 lung was more than 100 µM throughout. The TGI in the assay on NCI-H460 lung and in the assay with MOLT-4 leukemia was more than 100 µM each time.

Turning to `CC(=O)[O][Hg][c]1ccccc1`, the GI50 in the assay with EKVX NSCLC is 1.46 µM; in the assay on NCI/ADR-RES ovarian, 1.7 µM; with PC-3 prostate, 1.41 µM; in the assay on UACC-257 melanoma, 0.908 µM; with HOP-62 NSCLC, 1.62 µM; with NCI-H23 lung, 0.682 µM. Besides, the GI50 in the assay with NCI-H460 lung is 0.934 µM; in the assay with MOLT-4 leukemia, 0.19 µM. The TGI with EKVX NSCLC worked out at 3.98 µM; with NCI/ADR-RES ovarian, 5.74 µM; with PC-3 prostate, 3.21 µM; in the assay on UACC-257 melanoma, 2.18 µM; with HOP-62 NSCLC, 3.11 µM; with NCI-H23 lung, 3.46 µM. In addition, the TGI in the assay on NCI-H460 lung turned out to be 3.82 µM; with MOLT-4 leukemia it was 0.551 µM.

`Cn1c(=S)c2[nH]c(SCCN3CCCC3)nc2n(C)c1=O`: the TGI in the assay with EKVX NSCLC, with NCI/ADR-RES ovarian, with PC-3 prostate, with UACC-257 melanoma, in the assay on HOP-62 NSCLC and in the assay on NCI-H23 lung was more than 100 µM in each case. Moreover, the TGI with NCI-H460 lung and in the assay with MOLT-4 leukemia was more than 100 µM each time.

Take `COc1ccc(C(=O)c2cc3c(N)c(C(=O)Nc4cccc(Cl)c4C)sc3nc2C)cc1`: the GI50 in the assay on EKVX NSCLC is 0.134 µM; in the assay with NCI/ADR-RES ovarian, 0.086 µM; with PC-3 prostate it was 0.122 µM; with UACC-257 melanoma it was more than 6.12 µM; in the assay with HOP-62 NSCLC it was 0.154 µM; in the assay on NCI-H23 lung, 0.173 µM. Also, the figures for the GI50 in the assay on NCI-H460 lung and in the assay on MOLT-4 leukemia were 0.0917 µM and 0.153 µM, respectively. Further, the TGI with EKVX NSCLC, in the assay on NCI/ADR-RES ovarian, with PC-3 prostate, in the assay on UACC-257 melanoma, in the assay with HOP-62 NSCLC and in the assay with NCI-H23 lung was more than 25 µM in each case. The TGI in the assay with NCI-H460 lung and in the assay with MOLT-4 leukemia was more than 25 µM in each case.

As for `C#CCOc1cccc(Nc2ncnc3ccc(NC(=O)CCl)cc23)c1`, the GI50 in the assay on EKVX NSCLC is 3.5 µM; with NCI/ADR-RES ovarian it was 0.817 µM; with PC-3 prostate, 0.581 µM; in the assay with UACC-257 melanoma, 7.49 µM; in the assay on HOP-62 NSCLC it was 4.2 µM; in the assay on NCI-H23 lung it was 2.87 µM. Besides, the GI50 was 0.0723 µM in the assay with NCI-H460 lung and 0.0864 µM in the assay with MOLT-4 leukemia. Besides, the TGI in the assay on EKVX NSCLC is 23.6 µM; with NCI/ADR-RES ovarian, more than 100 µM; in the assay with PC-3 prostate, 12.4 µM; in the assay on UACC-257 melanoma, 26 µM; in the assay with HOP-62 NSCLC it was more than 53.2 µM; with NCI-H23 lung it was 29.9 µM. Moreover, the values for the TGI in the assay with NCI-H460 lung and in the assay with MOLT-4 leukemia were 3.08 µM and more than 89.5 µM, respectively.
